We go through 1 substance from patent US9511136B2, “Immunogenic compounds comprising HIV GP41 peptide coupled to CRM197 carrier protein” ([…], priority 2012, dated 2016).

In the assay the test system is NKp44L at the surface of activated human CD4+ T cells. The experiment in a line: Inhibition by antiserums of 3S16Nter-induced NKp44L expression at the surface of activated human CD4+ T cells (cytofluorometry). Format: cell-based. An excerpt:
The aim of Example 5 was to test the ability of the antiserums of a rat vaccinated with the adjuvanted 3S drug substance to inhibit the expression of NKp44L at the surface of activated human CD4+ T cells induced by the 3S peptide, namely the 3S16Nter peptide.
CD4+ T cells were sorted from human PBMC and activated for 3 days with PHA (Thermo Fisher Scientific, Waltham, USA) then expanded for three days with recombinant IL-2 (Novartis, Horsham, United Kingdom). The cells were put in presence of 3S16Nter peptides (Covalab, Villeurbanne, France) in order to induce the expression of NKp44L at their surface.
The expression of NKp44L at the surface of the cells was measured using the intensity of a specific fluorescent staining measured by cytofluorometry.
The inhibition of NKp44L expression by the antiserums of vaccinated rat was studied.
The antisera were tested at different dilutions in triplicate.
Human CD4+ T cells were obtained by magnetic separation from a leuko-platelet residue pouch ordered from the EFS (“Etablissement Francais du Sang”).
The human CD4+ T cells were sorted from the pouch according to the following protocol: • 1. The pouch is distributed in four Falcon tubes of 50 mL: 4×15 mL • 2. Complete to 50 mL with RPMI1640+glutamax medium (ref 72400-054, GIBCO, Life Technologies, Carlsbad, USA) • 3. […]

Several values for one entry are separate records, joined by “and”; a condition that tells them apart may be missing. Identical values can stand only once.

Take H-CPWNASWSNKSLDDIW-OH [3S16Nter]: where the note is “no serum, with 3S16Nter peptides (5 μg/mL), single wells”, the “PE X-mean fluorescence” value is 59.6 and 64.7. Further, the “NKp44L expression on activated CD4+ T cells (mean level)” value (without serum, in the presence of 3S16Nter peptides) was 62.
